These results are taken from paper PMC6934188, “Epidermal hepcidin is required for neutrophil response to bacterial infection” (The Journal of Clinical Investigation, 2019).

Data set [1] has as its system murine primary keratinocytes. The experiment in a line: Cytokines in culture supernatant of murine primary keratinocytes (V-PLEX Proinflammatory Panel1 / CXCL1 ELISA). The data set is classed as cell-based, mouse.
Data set [2] relates to GAS. Kind of data set: Therapeutic treatment in GAS-induced necrotizing fasciitis mouse model. It is filed as in vivo, mouse (C57BL6).
The next data set concerns SpyCEP. The note with it: incubated overnight with purified SpyCEP or PBS; mass spectrometry read-out; CXCL1 fragments of 5.9 kDa and 1.3 kDa.
The target of the next data set is SpeB (Streptococcus pyogenes, UniProt P0C0J0).
Data set [3] relates to human HaCat keratinocyte cell line. The experiment in a line: IL-8 ELISA on culture supernatant of HaCat. It is filed as cell-based. To be noted: HaCat stimulated with 3.6 μM hepcidin; n ≥ 3 per group.
The test system of data set [4] is human 3D organotypic skin model. Kind of data set: IL-8 ELISA on culture supernatant of human 3D organotypic skin model. The data set is classed as cell-based. To be noted: human 3D skin equivalent model stimulated with 3.6 μM hepcidin; n ≥ 3 per group.
The subject of data set [5] is GAS. Kind of data set: Rescue experiment: CXCL1 injection into GAS-infected Hamp1Δker mice. The note with it: 1 µg/mouse rCXCL1 s.c. with infection and intralesionally at 24, 48 and 72 h, n ≥ 4 per group.
Experimental: (G) Bacterial count in the skin of Hamp1^lox/lox and Hamp1Δ^ker mice injected daily with CXCL1 or PBS; n ≥ 4 per group.
were performed in a C57BL6 background, using 8-12 week old male littermates.
Mouse model of GAS infection
A well-established model of necrotizing soft tissue infection was adapted for this study (3, 4).
In brief, Hamp1lox/lox and Hamp1Δker mice male littermates were subcutaneously injected with
107 c.f.u. of M1T1 5448 GAS. Weight loss and lesion size of mice were estimated daily. After
96 hours, mice were sacrificed and skin necrotic ulcers, spleen, and blood (via retro orbital
bleeding) were recovered and homogenized in sterile PBS. Serial dilutions of tissue
homogenate were spread on THA plates to enumerate bacterial colony forming units (c.f.u.).
For the rescue experiment, Hamp1lox/lox and Hamp1Δker littermates were subcutaneously
infected with 107 c.f.u. of GAS with PBS or 1 µg/mouse of recombinant CXCL1 (rCXCL1;
R&D system, 1395-KC-025/CF). Mice were intralesionally injected again at 24, 48 and 72 h
with PBS or 1 µg of rCXCL1.

Where no end group is shown, it is not given here.

As for “hepcidin (DTNFPICIFCCKCCNNSQCGICCKT; ends and bridges not checked; cysteine pairing not given here; UniProt Q9EQ21 59-83, looked up)”, in data set [1] (murine primary keratinocytes incubated with 0.36 μM and 3.6 μM synthetic hepcidin for 1 or 3 hours, V-PLEX cytoplex, n = 3 per group), the “CXCL1 in culture supernatant” value is “dose-dependent increase”. Besides, the “CXCL1 induction measured by ELISA” value in data set [1] (murine primary keratinocytes, 3.6 uM hepcidin, 1 or 3 hours, N=3 per group (Supplemental Figure 5)) is on record as “confirmed by ELISA”. Moreover, in the data set on GAS [2] (CXCL1–/– mice, hepcidin treatment (Supplemental Figure 8)), the “bacterial dissemination in CXCL1–/– mice” value is listed as “did not prevent bacterial dissemination”. In addition, the weight variation entry in the data set on GAS [2] (WT mice, s.c. 1 μg hepcidin 24 h after GAS infection, then 500 ng at 48 and 72 h, 4 days, n = 9) was “recovered their initial weight”. For the same molecule, the “mice with absolutely no bacterial dissemination (bacterial count in spleen)” value in the data set with GAS [2] (WT mice, s.c. 1 μg hepcidin 24 h after GAS infection, then 500 ng at 48 and 72 h, spleen c.f.u. at 96 hours, n = 9, all control mice disseminated) is 7 of the 9. Further, the “signs of systemic disease” value in the data set on GAS [2] (WT mice, s.c. 1 μg hepcidin 24 h after GAS infection, then 500 ng at 48 and 72 h, vs PBS (weight loss, rough hair coat, hunched posture), n = 9) is given as “did not present any signs of systemic disease”. Besides, the neutrophil recruitment entry in the data set with GAS [2] (WT mice, s.c. 1 μg hepcidin at inoculation site 24 h after GAS infection, then 500 ng at 48 and 72 h, n = 6 per group) is “increase in neutrophil recruitment”. In addition, the “cleavage by SpyCEP” value in the data set on SpyCEP was “not cleaved”. In the data set with SpeB, the “cleavage by SpeB” value is reported as “not cleaved”.
As to Ferric Ammonium Citrate [iron], the “CXCL1 production (ELISA)” value in data set [1] (murine primary keratinocytes stimulated 3 hours with 500 μM ferric ammonium citrate (FAC), n = 3 per group) is listed as “stimulated CXCL1 production”.
Take “human hepcidin (DTHFPICIFCCGCCHRSKCGMCCKT; ends and bridges not checked; cysteine pairing not given here; UniProt P81172 60-84, looked up) [human hepcidin used to stimulate HaCat and human 3D organotypic skin model]”: the “production of IL-8” value in data set [3] and in data set [4] was “induce the production of IL-8” in each case.

B1: CXCL1 (protein, UniProt P12850 25-96, looked up)
Growth-regulated alpha protein: APIANELRCQCLQTMAGIHLKNIQSLKVLPSGPHCTQTEVIATLKNGREACLDPEAPLVQKIVQKMLKGVPK
Regarding B1, in the data set on SpyCEP, the “cleavage by SpyCEP” value is on record as “cleaved”. For the same molecule, in the data set on GAS [5], the “bacterial count in the skin lesion” value is “significantly decreased the number of bacteria”.
